Article PMC9696794, “Synthesis and Antimicrobial Activity of Short Analogues of the Marine Antimicrobial Peptide Turgencin A: Effects of SAR Optimizations, Cys-Cys Cyclization and Lipopeptide Modifications” (International Journal of Molecular Sciences, 2022)
Where a SMILES comes first, the peptide text is derived from it. The star is where a group is joined. Octanoyl = CCCCCCCC(=O)*

How the values were obtained:
[1] = tested on: Gram-negative bacterial strains (E. coli and P. aeruginosa); assay: Antibacterial MIC assay, Gram-negative strains together (range or geometric mean); assay type: cell-based; conditions: Table S3; MIC >256 set to 256
Experimental: (§1) All cyclic and linear peptides were screened for antibacterial activity against four Gram-positive strains: B. subtilis (Bs, ATCC 23857), C. glutamicum (Cg, ATCC 13032), S. aureus (Sa, ATCC 9144) and S. epidermidis RP62A (Se, ATCC 35984), and two Gram-negative strains: E. coli (Ec, ATCC 25922) and P. aeruginosa (Pa, ATCC 27853). The activity was assessed using a broth microdilution assay according to a modified CLSI-based method. Briefly, overnight bacterial cultures were grown in Mueller–Hinton (MH) broth medium (Difco Laboratories, Detroit, MI, USA) for 2 h at room temperature. The optical density (OD600) was measured, and the bacterial suspensions were adjusted to 2.5–3 × 10^4 CFU/mL in MH medium. The bacterial suspension (50 µL) was distributed in 96-well plates (Nunc, Roskilde, Denmark) preloaded with two-fold dilution series (256 to 1 µg/mL) of peptide solutions (50 µL), giving a final well volume of 100 µL. The microplates were incubated in an EnVision 2103 microplate reader (PerkinElmer, Llantrisant, UK) at 35 °C, with OD595 recorded every hour for 24 h. MIC was defined as the lowest concentration of peptides showing an optical density less than 10% of the negative (growth) control, consisting of bacterial suspension and water. Polymyxin B sulfate (Sigma-Aldrich, St. Louis, MO, USA) and chlorhexidine acetate (CHX, Fresenius Kabi, Halden, Norway), both with concentrations ranging from 12.5 to 0.09 μg/mL, served as positive (growth inhibition) controls. All peptides were tested in triplicate.

[2] = tested on: B. subtilis (Bs, ATCC 23857); assay: microbe, parasite or virus in culture; assay type: cell-based, Bacillus subtilis; conditions: ATCC 23857, 24 h
Experimental: as §1

[3] = tested on: human red blood cells (RBC); assay: Haemolytic activity assay; assay type: cell-based; conditions: for Selectivity index (SI) G- / Selectivity index (SI) G+ / Selectivity index (SI) Fungi: Table S3, highest tested concentration used where EC50 above it; for Selectivity index (SI) G-: EC50/GM of Gram-negative strains; for Selectivity index (SI) G+: EC50/GM of Gram-positive strains; for Selectivity index (SI) Fungi: EC50/GM of fungi; for SI (selectivity index = EC50/GM): haemolytic EC50 over GM of MIC against all bacterial strains, Table 1; for RBC Tox. (EC50), haemolytic activity: human RBC, 1 h, 37 °C, concentration giving 50% haemolysis
Experimental: The synthetized lipopeptides were screened for haemolytic activity against human red blood cells (RBC), in concentrations ranging from 500 to 3.9 μM, following a previously described protocol. In brief, haemolysis was determined using a heparinizied (10 IU/mL) fraction of freshly drawn human blood. A second fraction of blood, which was collected in test tubes containing ethylenediaminetetraacetic acid (EDTA, Vacutest, KIMA, Arzergrande, Italy), was used for determination of the hematocrit (hct). Plasma was removed from heparinized blood by washing three times with prewarmed phosphate-buffered saline (PBS) before being adjusted to a hematocrit of 4%. Peptides dissolved in dimethyl sulfoxide (DMSO) were further diluted with PBS to a final DMSO content of ≤1%. Triton X-100 (Sigma-Aldrich, St. Louis, MO, USA), used at a final concentration of 0.1%, served as a positive control for 100% haemolysis, whereas 1% DMSO in PBS buffer served as a negative control where no toxicity was detected. Duplicates of test solutions and erythrocytes, with 1% hct final concentration, were prepared in a 96-well polypropylene V-bottom plate (Nunc, Fischer scientific, Oslo, Norway). They were incubated under agitation at 37 °C and 800 rpm for 1 h. After centrifugation (5 min, 3000× g), 100 µL from each well were transferred to a flat-bottomed 96-well plate and absorbance was measured at 545 nm with a microplate reader (SpectraMax 190, Molecular Devices, San Jose, CA, USA). After subtracting PBS background, the percentage of haemolysis was calculated as the ratio of the absorbance in the peptide-treated and surfactant-treated samples. Three independent experiments were performed, and EC50 (the concentration giving 50% haemolysis) values are presented as averages.

[4] = tested on: Gram-positive bacterial strains; conditions: for GM of MIC G+: Table S3, MIC >256 set to 256
Experimental: as §1

A. pullulans (Ap) = assay: microbe, parasite or virus in culture; assay type: cell-based, Aurobasidium pollulans; conditions: 48 h
Experimental: (§2) The synthesized peptides were screened for antifungal activity against the molds A. pullulans (Ap) and Rhodotorula sp. (Rh) (both obtained from Professor Arne Tronsmo, The Norwegian University of Life Sciences, Ås, Norway) and the yeast C. albicans (Ca, ATCC 10231) as previously described. In short, fungal spores were grown in potato dextrose broth media (Difco) containing 2% D(+)-glucose (Merck, Darmstadt, Germany) at 25–30 °C while shaking at 200 rpm overnight. The cultures were diluted with a dextrose media containing glucose to a concentration of approx. 4 × 10^5 spores/mL. Aliquots of the cultures (50 µL) were transferred to 96 well microtiter plates preloaded with the synthetic peptides (50 µL) in two-fold serial dilutions (256 to 1 µg/mL). Polymyxin B and CHX (both with concentrations ranging from 12.5 to 0.09 μg/mL) served as positive antibiotic controls. The microtiter plates containing the fungal spores and the test peptides were incubated at room temperature for 48 h and OD600 was recorded using a Synergy H1 Hybrid microplate reader system (BioTek, Winooski, VT, USA). MIC was defined as the lowest peptide concentration showing an optical density less than 10% of the negative (growth) control. All experiments were performed in triplicate.

E. coli (Ec, ATCC 25922) = assay: microbe, parasite or virus in culture; assay type: cell-based, Escherichia coli; conditions: ATCC 25922, 24 h
Experimental: as §1

[5] = tested on: C. albicans (Ca, ATCC 10231); assay: microbe, parasite or virus in culture; assay type: cell-based, Candida albicans; conditions: ATCC 10231, 48 h
Experimental: as §2

[6] = tested on: fungi (A. pullulans, C. albicans, Rhodotorula sp.); assay: Antifungal MIC assay, all fungi together (range or geometric mean); assay type: cell-based; conditions: Table S3; MIC >128 set to 128
Experimental: as §2

[7] = tested on: P. aeruginosa (Pa, ATCC 27853); assay: microbe, parasite or virus in culture; assay type: cell-based, Pseudomonas aeruginosa; conditions: ATCC 27853, 24 h
Experimental: as §1

[8] = tested on: C. glutamicum (Cg, ATCC 13032); assay: microbe, parasite or virus in culture; assay type: cell-based, Corynebacterium glutamicum; conditions: ATCC 13032, 24 h
Experimental: as §1

Rhodotorula sp. (Rh) = assay: microbe, parasite or virus in culture; assay type: cell-based; conditions: 48 h
Experimental: as §2

all bacterial strains = assay: Antibacterial MIC assay, all bacterial strains together (range or geometric mean); assay type: cell-based; conditions: for GM (geometric mean of the MIC values against all bacterial strains): Table 1, six bacterial strains; for GM of MIC Tot. bact.: Table S3, all bacterial test strains, MIC >256 set to 256
Experimental: The selectivity index (SI) of the peptides towards bacteria over eukaryotic cells was calculated using the geometric mean (GM) of the MIC values against all bacterial test strains, according to the method by Orlov et al.. The SI for each peptide was determined as the ratio of the RBC-EC50 value by the corresponding GM value. Larger SI values indicate greater selectivity for microbial cells. […] In general, the SI was higher against the Gram-positive bacteral strains than the Gram-negative strains. (Table S3). Overall, peptides displaying EC50 < 100 µg/mL were considered too haemolytic to be of interest for further exploration.
as §1

[9] = tested on: S. epidermidis RP62A (Se, ATCC 35984); assay: microbe, parasite or virus in culture; assay type: cell-based, Staphylococcus epidermidis; conditions: ATCC 35984, 24 h
Experimental: as §1

[10] = tested on: S. aureus (Sa, ATCC 9144); assay: microbe, parasite or virus in culture; assay type: cell-based, Staphylococcus aureus; conditions: ATCC 9144, 24 h
Experimental: as §1

| SMILES | GM of MIC G- [1] | Antimicrobial Activity (MIC) Gram + Bs [2] | Selectivity index (SI) G- [3] | Selectivity index (SI) G+ [3] | Selectivity index (SI) Fungi [3] | SI (selectivity index = EC50/GM) [3] | RBC Tox. (EC50), haemolytic activity [3] | GM of MIC G+ [4] | Antimicrobial Activity (MIC) Fungi Ap (A. pullulans (Ap)) | Antimicrobial Activity (MIC) Gram − Ec (E. coli (Ec, ATCC 25922)) | Antimicrobial Activity (MIC) Fungi Ca [5] | GM of MIC Fungi [6] | Antimicrobial Activity (MIC) Gram − Pa [7] | Antimicrobial Activity (MIC) Gram + Cg [8] | Antimicrobial Activity (MIC) Fungi Rh (Rhodotorula sp. (Rh)) | GM (geometric mean of the MIC values against all bacterial strains) (all bacterial strains) | GM of MIC Tot. bact. (all bacterial strains) | Antimicrobial Activity (MIC) Gram + Se [9] | Antimicrobial Activity (MIC) Gram + Sa [10] | MIC against the Gram-positive bacterial strains ([4]; 2 h) |
| --- | --- | --- | --- | --- | --- | --- | --- | --- | --- | --- | --- | --- | --- | --- | --- | --- | --- | --- | --- | --- |
| CCCCCCCC(=O)N[C@@H](CS)C(=O)NCC(=O)N[C@@H](CCCCN)C(=O)N[C@@H](CCCCN)C(=O)N1CCC[C@H]1C(=O)NCC(=O)NCC(=O)N[C@@H](Cc1c[nH]c2ccccc12)C(=O)N[C@@H](CCCCN)C(=O)N[C@@H](CS)C(=O)N[C@@H](CCCCN)C(=O)N[C@@H](CC(C)C)C(N)=O [Peptide C8-Turg-1, C8- CGKKPGGWKC KL-NH2] (Octanoyl-CGKKPGGWKCKL-NH2) | 64 µg/mL | 8 µg/mL | > 15 | > 50 | > 23 | >33 | >943 µg/mL | 19 µg/mL | 32 µg/mL | 32 µg/mL | 128 µg/mL | 40 µg/mL | 128 µg/mL | 4 µg/mL | 16 µg/mL | 29 µg/mL | 29 µg/mL | 32 µg/mL | 128 µg/mL |  |
| CCCCCCCC(=O)N[C@@H](CS)C(=O)NCC(=O)N[C@@H](CCCCN)C(=O)N[C@@H](CCCCN)C(=O)N[C@@H](Cc1c[nH]c2ccccc12)C(=O)N[C@@H](Cc1c[nH]c2ccccc12)C(=O)NCC(=O)N[C@@H](Cc1c[nH]c2ccccc12)C(=O)N[C@@H](CCCCN)C(=O)N[C@@H](CS)C(=O)N[C@@H](CCCCN)C(=O)N[C@@H](CC(C)C)C(N)=O [Peptide C8-Turg-2, C8- CGKKWWGWKC KL-NH2] (Octanoyl-CGKKWWGWKCKL-NH2) | 16 µg/mL | 8 µg/mL | 12 | 29 | 5 | 22 | 198 µg/mL | 7 µg/mL | 32 µg/mL | 16 µg/mL | 64 µg/mL | 40 µg/mL | 16 µg/mL | 4 µg/mL | 32 µg/mL | 9 µg/mL | 9 µg/mL | 8 µg/mL | 8 µg/mL | 4 to 8 µg/mL |
